Measured values published in patent US4659712A, “Fodder additive and a process for the preparation” (Richter Gedeon Vegyeszeti Gyar Rt., priority 1984, dated 1987).
Values joined by “and” are separate entries in the source; they are usually repeats but may differ in a detail not shown here. Equal values may be shown once. “Also recorded” adds a separate entry of the source.

Legend:
[1] = Quinoxaline-2-carboxylic acid (Carbadox metabolite) residue in pig muscle (ham, chop), liver and kidney after flumecinol treatment; format: in vivo, pigs; design: key to amount of quinoxaline-2-carboxylic acid / quinoxaline-2-carboxylic acid content of the muscle tissue / quinoxaline-2-carboxylic acid content of the liver / quinoxaline-2-carboxylic acid content of the kidney: .0.: no detectable amount; conditions: for quinoxaline-2-carboxylic acid content of the kidney / quinoxaline-2-carboxylic acid content of the liver / quinoxaline-2-carboxylic acid content of the muscle tissue: average, n = 3; for amount of quinoxaline-2-carboxylic acid: individual animal
Procedure: (§1) Tests were carried out at a large-scale pig farm, where 25 mg/kg of body weight of Carbadox admixed with the fodder of the pigs were administered to pigs having a live weight of 40 kg. From a population fed with this fodder 27 animals, each weighing exactly 40 kg, were selected, by weighing them separately. The selected animals were railed off in a place suitable for further tests. From this time on (zero time) the animals were given the same fodder as before, except Carbadox.
(§2) The 27 animals were divided into three groups as follows:
(§3) Group I: 12 animals (ser. Nos. from 1 to 12) slaughtering: three animals each when starting the experiment (0 time) and on the 1st, 5th and 15th days (positive control group) Group II: 9 amimals (ser. Nos. from 13 to 21) treatment: a single 40 mg/kg of body weight dose of flumecinol at zero time. slaughtering: three animals each on the 1st, 5th and 15th days (group treated with a single dose of flumecinol) Group III: 6 animals (ser. Nos. 22 to 27) treatment: 40 mg/kg of body weight of flumecinol for three days, at zero time and on the 1st and 2nd day slaughtering: three animals each on the 5th and 15th days (group treated with flumecinol three times) Flumecinol is available as a micropellet containing 19.02% of active ingredient. From this and a 1% starch hydrolysate a suspension is prepared, containing 40 mg of flumecinol per 1 ml (dose used for one kg of body weight). The active compound was administered 8 o'clock in the morning, without previous fasting, through a stomach tube, in order to ensure exact conditions for the experiments. The animals were killed and samples were taken from 8 to 11 o'clock in the morning, whereupon the samples were transported into the analytical laboratory within one hour, under cooling.
(§4) Quinoxaline-2-carboxylic acid (a metabolite of Carbadox) was determined in the chop, liver and kidney tissues of three animals from each group. Each muscle and liver sample was subjected to organoleptic examination also (boiling test).
The quantity of quinoxaline-2-carboxylic acid was determined essentially following the method described in the USDA Chemistry Laboratory Guidebook (5007 Determination of Carbadox):
Following the alkaline hydrolysis of the muscle, liver and kidney samples, the hydrolysates were strongly acidified and the quinoxaline-2-carboxylic acid was extracted with ethyl acetate. The pH of the ethyl acetate extract was adjusted to 6 with a citric acid buffer, whereupon the mixture was extracted with benzene. In the next step the acid was esterified with a mixture of n-propanol and sulfuric acid, to yield propyl quinoxaline-2-carboxylate. The quantity of the latter compound was determined (after purification by thin layer chromatography) by gas chromatography. This cumbersome test procedure was always performed together with a […] control sample to which a known amount (0.2 μg-1.0 μg) of quinoxaline-2-carboxylic acid (standard) was added. The percentage of the active ingredient recovered from this sample was taken into account when calculating the residual active substance amount. In this way the error of the process was eliminated.
The test results, if not otherwise indicated, are given in μg/kg.
The quantity of quinoxaline-2-carboxylic acid in the above-specified slaughtering times is shownn in Table 1. The tests were carried out on three animals and Table 1 contains the results obtained on the individual animals. The results were also statistically evaluated for the various sorts of tissues, although in this specific case this was not really necessary, since according to the valid prescriptions the products of animal origin should not contain Carbadox at all, i.e. the limit is zero. Therefore, we considered it more important to determine when the animal tissues become entirely Carbadox-free, than to observe the differences among the tissues of the various groups of animals in the time when they were killed.

[2] = Organoleptic examination (boiling test) of muscle and liver tissues of pigs treated with Carbadox and flumecinol; format: in vivo; design: key to visual observation / organoleptic (odor) score: 1: negative; 2: slight strange (indeterminable) odor; 3: some strange (slight medicamentlike) odor; 4: definite strange (more expressed medicament) odor; conditions: for visual observation / organoleptic (odor) score: individual animal
Procedure: as §1, §2, §3, §4

[3] = tested on: polysubstrate monooxygenase enzyme system of the liver; assay: Induction of the polysubstrate monooxygenase enzyme system of the liver
[4] = one treatment 40 mg/kg, 1st day
[5] = one treatment 40 mg/kg, 1st day, chop
[6] = one treatment 40 mg/kg, 1st day, ham
[7] = one treatment 40 mg/kg, 5th day
[8] = one treatment 40 mg/kg, 5th day, chop
[9] = one treatment 40 mg/kg, 5th day, ham
[10] = one treatment 40 mg/kg, 15th day
[11] = one treatment 40 mg/kg, 15th day, chop
[12] = one treatment 40 mg/kg, 15th day, ham
[13] = one treatment 40 mg/kg, 1st day, liver
[14] = one treatment 40 mg/kg, 5th day, liver
[15] = one treatment 40 mg/kg, 15th day, liver
[16] = three treatments 40 mg/kg, 5th day
[17] = three treatments 40 mg/kg, 5th day, chop
[18] = three treatments 40 mg/kg, 5th day, ham
[19] = three treatments 40 mg/kg, 15th day
[20] = three treatments 40 mg/kg, 15th day, chop
[21] = three treatments 40 mg/kg, 15th day, ham
[22] = three treatments 40 mg/kg, 5th day, liver
[23] = three treatments 40 mg/kg, 15th day, liver

Q: What does the source list for `CCC(O)(c1ccccc1)c1cccc(C(F)(F)F)c1` (centres unmarked) [flumecinol, 1-(3-trifluoromethylphenyl)-1-(phenyl)-propan-1-ol]?
A: residue in muscle tissues and kidney ([1]; 40 mg/kg daily for three subsequent days, 5th day): free of residue on the 5th day; residue in kidney (so in the source) ([1]; 40 mg/kg daily for three subsequent days, 15th day): free of residue on the 15th day; residual quinoxaline-2-carboxylic acid in muscle ([1]; 5th day after termination of Carbadox, one or three treatments): no residual quinoxaline-2-carboxylic acid could be detected; residual Carbadox in muscle vs. control ([1]; Group II, one dose, 24 hours after treatment): significantly lower than in the control animals slaughtered at the same time; residue in the kidney ([1]; addition in three subsequent days, kidney, 5th and 15th day): no residue was detected either on the 5th or on the 15th day; quinoxaline-2-carboxylic acid elimination from the muscle tissue ([1]; flumecinol treatment, muscle): significant acceleration of quinoxaline-2-carboxylic acid elimination from the muscle tissue; quinoxaline-2-carboxylic acid content of the kidney [1, 4]: 30.67 µg/kg; quinoxaline-2-carboxylic acid content of the liver [1, 4]: 64.67 µg/kg; quinoxaline-2-carboxylic acid content of the muscle tissue [1, 5]: 5.33 µg/kg; quinoxaline-2-carboxylic acid content of the muscle tissue [1, 6]: 1.33 µg/kg; quinoxaline-2-carboxylic acid content of the muscle tissue ([1]; one treatment 40 mg/kg, 1st day, total): 3.33 µg/kg; quinoxaline-2-carboxylic acid content of the kidney [1, 7]: 10.00 µg/kg; quinoxaline-2-carboxylic acid content of the liver [1, 7]: 12.00 µg/kg; quinoxaline-2-carboxylic acid content of the muscle tissue [1, 8]: .0.; quinoxaline-2-carboxylic acid content of the muscle tissue [1, 9]: .0.; quinoxaline-2-carboxylic acid content of the muscle tissue ([1]; one treatment 40 mg/kg, 5th day, total): .0.; quinoxaline-2-carboxylic acid content of the kidney [1, 10]: .0.; quinoxaline-2-carboxylic acid content of the liver [1, 10]: 7.33 µg/kg; quinoxaline-2-carboxylic acid content of the muscle tissue [1, 11]: .0.; quinoxaline-2-carboxylic acid content of the muscle tissue [1, 12]: .0.; quinoxaline-2-carboxylic acid content of the muscle tissue ([1]; one treatment 40 mg/kg, 15th day, total): .0.; amount of quinoxaline-2-carboxylic acid [1, 5]: 4 µg/kg and 6 µg/kg; amount of quinoxaline-2-carboxylic acid [1, 6]: 4 µg/kg; amount of quinoxaline-2-carboxylic acid ([1]; one treatment 40 mg/kg, 1st day, ham, symbol): .0.; amount of quinoxaline-2-carboxylic acid ([1]; one treatment 40 mg/kg, 1st day, kidney): 38 µg/kg and 30 µg/kg and 24 µg/kg; amount of quinoxaline-2-carboxylic acid [1, 13]: 58 µg/kg and 64 µg/kg and 72 µg/kg; amount of quinoxaline-2-carboxylic acid [1, 8]: .0.; amount of quinoxaline-2-carboxylic acid [1, 9]: .0.; amount of quinoxaline-2-carboxylic acid ([1]; one treatment 40 mg/kg, 5th day, kidney): 10 µg/kg and 8 µg/kg and 12 µg/kg; amount of quinoxaline-2-carboxylic acid [1, 14]: 10 µg/kg and 12 µg/kg and 14 µg/kg; amount of quinoxaline-2-carboxylic acid [1, 11]: .0.; amount of quinoxaline-2-carboxylic acid [1, 12]: .0.; amount of quinoxaline-2-carboxylic acid ([1]; one treatment 40 mg/kg, 15th day, kidney): .0.; amount of quinoxaline-2-carboxylic acid [1, 15]: 8 µg/kg and 6 µg/kg; metabolite residue in liver ([1]; single 40 mg/kg dose, liver, 15th day, 40 mg/kg): can be detected even on the 15th day; also recorded: could be still detected on the 15th day; amount of quinoxaline-2-carboxylic acid in liver, decrease ([1]; single 40 mg/kg dose, liver, each measuring point): significant decrease in the amount of quinoxaline-2-carboxylic acid at each measuring point; residue in the kidney vs. control ([1]; single dose, kidney, 1st and 5th days): essentially identical with the values obtained in the control group; residue in the kidney ([1]; single dose, kidney, 15th day): no reside can be detected; metabolite residue in liver, time of detection ([1]; three subsequent treatments, liver): a metabolite residue can be identified on the 5th day only; metabolite residue in liver vs. control and single dose ([1]; three subsequent treatments, liver, 5th day): substantially lower amount than in the control animals or in the group treated with a single dose of flumecinol; quinoxaline-2-carboxylic acid content of the kidney [1, 16]: .0.; quinoxaline-2-carboxylic acid content of the liver [1, 16]: 6.00 µg/kg; quinoxaline-2-carboxylic acid content of the muscle tissue [1, 17]: .0.; quinoxaline-2-carboxylic acid content of the muscle tissue [1, 18]: .0.; quinoxaline-2-carboxylic acid content of the muscle tissue ([1]; three treatments 40 mg/kg, 5th day, total): .0.; quinoxaline-2-carboxylic acid content of the kidney [1, 19]: .0.; quinoxaline-2-carboxylic acid content of the liver [1, 19]: .0.; quinoxaline-2-carboxylic acid content of the muscle tissue [1, 20]: .0.; quinoxaline-2-carboxylic acid content of the muscle tissue [1, 21]: .0.; quinoxaline-2-carboxylic acid content of the muscle tissue ([1]; three treatments 40 mg/kg, 15th day, total): .0.; amount of quinoxaline-2-carboxylic acid [1, 17]: .0.; amount of quinoxaline-2-carboxylic acid [1, 18]: .0.; amount of quinoxaline-2-carboxylic acid ([1]; three treatments 40 mg/kg, 5th day, kidney): .0.; amount of quinoxaline-2-carboxylic acid [1, 22]: 4 µg/kg and 6 µg/kg and 8 µg/kg; amount of quinoxaline-2-carboxylic acid [1, 20]: .0.; amount of quinoxaline-2-carboxylic acid [1, 21]: .0.; amount of quinoxaline-2-carboxylic acid ([1]; three treatments 40 mg/kg, 15th day, kidney): .0.; amount of quinoxaline-2-carboxylic acid [1, 23]: .0.; unpleasant odor released in the tissues by Carbadox administration ([2]; flumecinol treatment): eliminates the unpleasant odor; visual observation / organoleptic (odor) score [2, 5]: 1; visual observation / organoleptic (odor) score [2, 6]: 1; visual observation / organoleptic (odor) score [2, 13]: 3; visual observation / organoleptic (odor) score [2, 8]: 1; visual observation / organoleptic (odor) score [2, 9]: 1; visual observation / organoleptic (odor) score [2, 14]: 2; visual observation / organoleptic (odor) score [2, 11]: 1; visual observation / organoleptic (odor) score [2, 12]: 1; visual observation / organoleptic (odor) score [2, 15]: 1; elimination of flumecinol from the tissue of pigs ([2]; pigs): rapidly eliminated from the tissue of pigs; undesired effects detected organoleptically ([2]; pigs): no undesired effects which could be detected organoleptically; visual observation / organoleptic (odor) score [2, 17]: 1; visual observation / organoleptic (odor) score [2, 18]: 1; visual observation / organoleptic (odor) score [2, 22]: 1; visual observation / organoleptic (odor) score [2, 20]: 1; visual observation / organoleptic (odor) score [2, 21]: 1; visual observation / organoleptic (odor) score [2, 23]: 1; induction of the polysubstrate monooxygenase enzyme system [3]: specific inductor of the polysubstrate monooxygenase enzyme system
